Here are results for two compounds from article PMC4770715, “LIM kinase inhibitors disrupt mitotic microtubule organization and impair tumor cell proliferation” (Oncotarget, 2015).

Among the targets are BMX (Homo sapiens, UniProt P51813); PIK3CA(E545A) (Homo sapiens, UniProt P42336, E545A); EPHA2 (Homo sapiens, UniProt P29317); RET(M918T) (Homo sapiens, UniProt P07949, M918T); EPHB6 (Homo sapiens, UniProt O15197); KIT(D816H) (Homo sapiens, UniProt P10721, D816H); AAK1 (Homo sapiens, UniProt Q2M2I8); AKT2 (Homo sapiens, UniProt P31751); IGF1R (Homo sapiens, UniProt P08069); CLK4 (Homo sapiens, UniProt Q9HAZ1); PIP5K1C (Homo sapiens, UniProt O60331); RET (Homo sapiens, UniProt P07949); FLT4 (Homo sapiens, UniProt P35916).

Common to all, as to experiment: biochemical
Holding throughout (set-up): KINOMEscan active-site competition binding, percent of control (100 = no competition)
Holding throughout (conditions): competition binding, percent control

Another experiment addresses T1, YANK1 (Homo sapiens, UniProt Q8WU08).
T1 construct: gene STK32A

A further experiment concerns the target T2, ZAK (Homo sapiens, UniProt Q9NYL2).
T2 construct: gene MAP3K20

The target in the next experiment is T3, TRKA (Homo sapiens, UniProt P04629).
T3 construct: gene NTRK1

A further experiment has as its target T4, PKAC-alpha (Homo sapiens, UniProt P17612).
T4 construct: gene PRKACA

A further experiment addresses T5, S6K1 (Homo sapiens, UniProt P23443).
T5 construct: gene RPS6KB1

Another experiment addresses T6, AMPK-alpha1 (Homo sapiens, UniProt Q13131).
T6 construct: gene PRKAA1

For the next experiment, the target named is T7, MINK (Homo sapiens, UniProt Q8N4C8).
T7 construct: gene MINK1

The next experiment concerns the target T8, BIKE (Homo sapiens, UniProt Q9NSY1).
T8 construct: gene BMP2K

Another experiment addresses T9, DRAK2 (Homo sapiens, UniProt O94768).
T9 construct: gene STK17B

The target in a further experiment is T10, JNK3 (Homo sapiens, UniProt P53779).
T10 construct: gene MAPK10
T10 sequence (P53779 whole entry): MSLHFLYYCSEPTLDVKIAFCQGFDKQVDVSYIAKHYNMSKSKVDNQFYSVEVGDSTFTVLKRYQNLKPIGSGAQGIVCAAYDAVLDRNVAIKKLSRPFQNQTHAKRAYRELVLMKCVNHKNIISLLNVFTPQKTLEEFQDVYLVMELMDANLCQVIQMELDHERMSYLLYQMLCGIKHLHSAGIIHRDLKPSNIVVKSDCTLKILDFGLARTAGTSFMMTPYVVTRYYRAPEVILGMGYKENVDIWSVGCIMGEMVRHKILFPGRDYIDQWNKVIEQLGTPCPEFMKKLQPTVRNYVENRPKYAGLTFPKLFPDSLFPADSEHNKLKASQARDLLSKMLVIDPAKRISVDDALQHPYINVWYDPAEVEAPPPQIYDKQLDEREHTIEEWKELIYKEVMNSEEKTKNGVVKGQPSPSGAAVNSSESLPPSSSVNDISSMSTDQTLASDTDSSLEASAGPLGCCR

FLT4, sequence (P35916 whole entry): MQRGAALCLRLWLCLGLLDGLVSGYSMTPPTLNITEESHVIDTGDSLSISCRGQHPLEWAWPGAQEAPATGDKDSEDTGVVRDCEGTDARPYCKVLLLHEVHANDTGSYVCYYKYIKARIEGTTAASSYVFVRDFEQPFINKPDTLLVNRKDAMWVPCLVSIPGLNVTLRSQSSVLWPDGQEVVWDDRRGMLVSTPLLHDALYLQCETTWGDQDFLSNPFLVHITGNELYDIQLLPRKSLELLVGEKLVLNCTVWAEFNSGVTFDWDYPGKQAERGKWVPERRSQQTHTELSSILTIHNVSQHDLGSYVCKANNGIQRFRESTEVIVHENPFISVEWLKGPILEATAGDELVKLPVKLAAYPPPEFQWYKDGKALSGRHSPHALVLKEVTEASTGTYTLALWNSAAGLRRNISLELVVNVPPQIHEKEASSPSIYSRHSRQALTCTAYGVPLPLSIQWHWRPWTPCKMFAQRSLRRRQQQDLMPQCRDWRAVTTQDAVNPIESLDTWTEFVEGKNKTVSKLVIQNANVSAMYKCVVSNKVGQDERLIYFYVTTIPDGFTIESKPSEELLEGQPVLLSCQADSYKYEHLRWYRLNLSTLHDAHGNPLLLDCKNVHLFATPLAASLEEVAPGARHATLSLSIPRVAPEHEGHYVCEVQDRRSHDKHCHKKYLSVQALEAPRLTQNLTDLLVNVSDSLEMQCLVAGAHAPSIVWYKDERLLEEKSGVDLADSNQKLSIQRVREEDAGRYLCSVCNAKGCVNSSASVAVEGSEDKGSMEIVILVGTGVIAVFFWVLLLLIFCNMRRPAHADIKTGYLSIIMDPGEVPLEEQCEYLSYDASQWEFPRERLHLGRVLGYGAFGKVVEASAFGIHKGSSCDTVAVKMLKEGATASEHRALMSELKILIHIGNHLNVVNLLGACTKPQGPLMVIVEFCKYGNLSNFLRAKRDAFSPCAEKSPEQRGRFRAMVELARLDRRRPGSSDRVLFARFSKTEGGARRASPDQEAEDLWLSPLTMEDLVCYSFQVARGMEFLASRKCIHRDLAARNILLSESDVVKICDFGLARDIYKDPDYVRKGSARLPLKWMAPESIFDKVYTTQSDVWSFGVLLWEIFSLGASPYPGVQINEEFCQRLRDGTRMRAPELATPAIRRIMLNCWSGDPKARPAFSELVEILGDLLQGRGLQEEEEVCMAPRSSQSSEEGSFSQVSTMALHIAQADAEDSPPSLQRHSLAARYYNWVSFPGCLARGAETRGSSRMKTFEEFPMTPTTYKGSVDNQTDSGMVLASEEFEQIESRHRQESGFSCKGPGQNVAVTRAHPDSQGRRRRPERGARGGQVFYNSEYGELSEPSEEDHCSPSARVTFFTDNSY
T3 sequence (P04629 whole entry): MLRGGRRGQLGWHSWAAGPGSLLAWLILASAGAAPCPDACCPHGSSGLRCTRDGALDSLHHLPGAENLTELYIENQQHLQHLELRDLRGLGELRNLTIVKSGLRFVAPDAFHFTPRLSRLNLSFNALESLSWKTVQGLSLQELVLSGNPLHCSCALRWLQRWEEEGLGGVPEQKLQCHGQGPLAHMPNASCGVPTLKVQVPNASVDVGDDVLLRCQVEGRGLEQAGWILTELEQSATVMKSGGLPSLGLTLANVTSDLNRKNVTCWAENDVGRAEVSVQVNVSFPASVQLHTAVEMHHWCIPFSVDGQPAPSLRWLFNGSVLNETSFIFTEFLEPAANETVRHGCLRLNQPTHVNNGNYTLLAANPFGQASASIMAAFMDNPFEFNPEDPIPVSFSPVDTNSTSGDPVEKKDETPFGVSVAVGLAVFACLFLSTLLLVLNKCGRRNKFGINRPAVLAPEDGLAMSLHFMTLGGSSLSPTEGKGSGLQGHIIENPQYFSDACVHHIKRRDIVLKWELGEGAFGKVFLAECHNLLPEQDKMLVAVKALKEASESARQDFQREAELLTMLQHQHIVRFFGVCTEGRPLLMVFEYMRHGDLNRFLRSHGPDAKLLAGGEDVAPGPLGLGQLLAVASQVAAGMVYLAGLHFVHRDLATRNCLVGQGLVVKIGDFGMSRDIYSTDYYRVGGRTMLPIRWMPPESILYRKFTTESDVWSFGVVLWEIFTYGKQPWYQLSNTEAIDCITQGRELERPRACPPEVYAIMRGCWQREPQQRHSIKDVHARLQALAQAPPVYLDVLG
T1 sequence (Q8WU08 whole entry): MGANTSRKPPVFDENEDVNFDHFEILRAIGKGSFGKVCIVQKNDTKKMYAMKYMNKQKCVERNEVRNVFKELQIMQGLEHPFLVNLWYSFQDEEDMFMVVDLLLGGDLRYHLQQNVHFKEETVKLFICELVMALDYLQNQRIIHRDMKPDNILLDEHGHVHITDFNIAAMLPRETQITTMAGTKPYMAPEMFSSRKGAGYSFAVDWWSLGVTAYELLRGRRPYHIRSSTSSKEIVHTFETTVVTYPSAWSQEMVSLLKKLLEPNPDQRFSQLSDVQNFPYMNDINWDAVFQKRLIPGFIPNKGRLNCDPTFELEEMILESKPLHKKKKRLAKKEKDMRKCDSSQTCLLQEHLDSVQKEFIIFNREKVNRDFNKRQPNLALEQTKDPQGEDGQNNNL
RET, sequence (P07949 whole entry): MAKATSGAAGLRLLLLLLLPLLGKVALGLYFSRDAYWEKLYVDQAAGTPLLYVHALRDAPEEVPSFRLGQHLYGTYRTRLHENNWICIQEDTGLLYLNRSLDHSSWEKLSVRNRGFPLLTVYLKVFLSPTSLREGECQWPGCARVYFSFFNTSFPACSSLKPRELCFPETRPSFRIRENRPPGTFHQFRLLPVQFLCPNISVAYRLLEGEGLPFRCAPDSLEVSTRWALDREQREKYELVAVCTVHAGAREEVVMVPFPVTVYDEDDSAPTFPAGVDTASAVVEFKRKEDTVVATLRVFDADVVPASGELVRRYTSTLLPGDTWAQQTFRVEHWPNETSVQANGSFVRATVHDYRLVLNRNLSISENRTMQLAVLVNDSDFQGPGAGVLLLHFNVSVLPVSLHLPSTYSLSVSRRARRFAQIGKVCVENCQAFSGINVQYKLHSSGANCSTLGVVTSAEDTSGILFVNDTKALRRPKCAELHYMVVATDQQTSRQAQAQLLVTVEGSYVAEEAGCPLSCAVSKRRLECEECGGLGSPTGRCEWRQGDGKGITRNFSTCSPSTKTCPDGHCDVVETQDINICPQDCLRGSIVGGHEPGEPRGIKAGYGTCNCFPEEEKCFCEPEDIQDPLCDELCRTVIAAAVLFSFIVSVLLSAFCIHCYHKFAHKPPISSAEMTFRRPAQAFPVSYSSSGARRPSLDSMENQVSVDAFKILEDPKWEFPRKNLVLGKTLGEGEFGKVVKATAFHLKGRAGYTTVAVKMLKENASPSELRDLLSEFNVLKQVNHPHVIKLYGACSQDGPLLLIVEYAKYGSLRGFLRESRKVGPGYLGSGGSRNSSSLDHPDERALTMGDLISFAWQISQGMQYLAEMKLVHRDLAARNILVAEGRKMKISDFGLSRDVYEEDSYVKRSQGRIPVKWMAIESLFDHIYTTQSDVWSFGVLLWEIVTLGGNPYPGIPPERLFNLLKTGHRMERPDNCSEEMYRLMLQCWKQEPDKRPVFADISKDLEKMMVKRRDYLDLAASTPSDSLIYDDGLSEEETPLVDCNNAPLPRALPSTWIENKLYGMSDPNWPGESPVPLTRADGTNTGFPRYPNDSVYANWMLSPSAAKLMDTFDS
T9 sequence (O94768 whole entry): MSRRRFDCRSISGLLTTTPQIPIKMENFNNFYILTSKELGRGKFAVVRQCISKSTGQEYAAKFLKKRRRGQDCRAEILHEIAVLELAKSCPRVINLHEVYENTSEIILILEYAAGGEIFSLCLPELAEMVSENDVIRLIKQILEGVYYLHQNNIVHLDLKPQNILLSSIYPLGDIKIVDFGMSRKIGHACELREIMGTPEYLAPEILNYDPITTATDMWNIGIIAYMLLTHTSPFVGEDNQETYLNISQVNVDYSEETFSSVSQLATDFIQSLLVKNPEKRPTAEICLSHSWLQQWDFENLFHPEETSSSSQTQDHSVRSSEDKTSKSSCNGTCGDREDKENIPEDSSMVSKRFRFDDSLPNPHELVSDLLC
CLK4, sequence (Q9HAZ1 whole entry): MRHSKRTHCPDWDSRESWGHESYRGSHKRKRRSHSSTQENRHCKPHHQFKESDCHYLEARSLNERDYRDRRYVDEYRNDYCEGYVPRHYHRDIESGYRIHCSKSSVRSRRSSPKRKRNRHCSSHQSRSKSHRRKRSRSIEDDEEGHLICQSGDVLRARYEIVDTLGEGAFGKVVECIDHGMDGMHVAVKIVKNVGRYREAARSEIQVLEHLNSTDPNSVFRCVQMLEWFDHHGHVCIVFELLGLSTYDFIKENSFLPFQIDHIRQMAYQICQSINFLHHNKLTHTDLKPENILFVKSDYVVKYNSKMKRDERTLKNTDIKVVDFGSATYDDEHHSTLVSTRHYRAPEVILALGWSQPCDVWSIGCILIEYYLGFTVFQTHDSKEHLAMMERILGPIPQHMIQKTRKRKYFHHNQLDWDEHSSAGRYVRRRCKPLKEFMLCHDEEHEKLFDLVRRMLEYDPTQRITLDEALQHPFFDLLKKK
RET(M918T), sequence (P07949 whole entry M918T): as the sequence (P07949 whole entry) above, with M918T counted along it

On to `COc1ccc(-c2cnccc2-c2cnc(NC(=O)C(C)C)s2)c(C(F)(F)F)c1` [CRT0105446, N-{5-[3-(4-Methoxy-2-trifluoromethyl-phenyl)-pyridin-4-yl]-hiazol-2-yl}-isobutyramide], for which the remaining binding at 10 µM is 100% on BMX; 100% on PIK3CA(E545A); 69% at YANK1; 100% at EPHA2; 91% at RET(M918T); 100% on ZAK. The remaining binding at 10 µM stood at 70% on TRKA; 86% at EPHB6; 100% at PKAC-alpha; 78% on S6K1; 1.1% on AMPK-alpha1; 100% at MINK. The remaining binding at 10 µM on KIT(D816H) was determined as 89%; at BIKE it was 100%; on DRAK2, 100%; on AAK1, 78%; on AKT2, 100%; at IGF1R, 100%. Also, the remaining binding at 10 µM amounted to 100% on CLK4; 60% at PIP5K1C; 87% on RET; 61% on FLT4; 36% at JNK3.

Regarding `Cc1ccc(-c2cnccc2-c2cnc(Nc3ccc(O)cc3)s2)c(Cl)c1` [CRT0105950, 4-{5-[3-(2-Chloro-4-methyl-phenyl)-pyridin-4-yl]-thiazol-2-ylamino}-phenol], the remaining binding at 10 µM was found to be 81% at BMX; 100% at PIK3CA(E545A); 88% at YANK1; 70% on EPHA2; 0.35% at RET(M918T); 9% at ZAK. The remaining binding at 10 µM on TRKA is 1%; on EPHB6 it was 17%; at PKAC-alpha, 41%; at S6K1, 41%; on AMPK-alpha1, 2.1%; on MINK, 13%. Moreover, the remaining binding at 10 µM on KIT(D816H) came out at 46%; at BIKE, 36%; at DRAK2, 100%; on AAK1, 51%; on AKT2 it was 100%; at IGF1R, 3.6%. Besides, the remaining binding at 10 µM at CLK4 came to 1.6%; at PIP5K1C, 100%; on RET, 1.2%; at FLT4, 26%; at JNK3, 25%.
